In the experiment the test system is lactate dehydrogenase in HepG-2 cells. Description: Lactate dehydrogenase (LDH) activity assay in cells. Type of experiment: cell-based, human. Particulars: 48 h. The text has this: The accumulation of lactate dehydrogenase can produce lactate metabolites and cause the deterioration of tumor cells. By inhibiting lactate dehydrogenase activity, the energy supply of tumor cells would be blocked, thus reducing their metastasis and progression. Therefore, in this paper, we also investigated the inhibitory activity of compound 8 on lactate dehydrogenase in HepG-2 cells. It has been known that LDH could catalyze lactic acid to generate pyruvate, which could react with 2,4-dinitrophenylhydrazine (DNPH) to form dinitrophenyl-pyruvate and form a reddish-brown product after reacting with an alkaline solution. The obtained product can be assessed by visible spectrophotometry. […]
Lactate dehydrogenase activity of HepG-2 cells treated with compound 8 was examined by using the Lactate Dehydrogenase Kit (Beijing Solarbio Science & Technology, Beijing, China) according to the instructions for use. […] Then the other reagents in the Lactate Dehydrogenase Kit (Beyotime Biotechnology, Shanghai, China) were added according to the instructions, and the absorption of the mixture was measured by the spectrophotometer. […] The absorption of the standard solution at 450 nm was measured to plot the standard curve. […]

*1 amine or outer side, *2 acyl side, *3 side chain or, on linkers, in order; H or OH if unused. Where a SMILES comes first, the peptide text is derived from it. [ ]: non-standard residue; d: D form. X1 = O=C1c2ccccc2[C@@](O)(CN(Cc2ccccc2)[*:1])N1CC(=O)[*:2]; NMeL = CN[C@@H](CC(C)C)C(=O)O

In the case of `CC(C)C[C@@H]1NC(=O)CN2C(=O)c3ccccc3[C@@]2(O)CN(Cc2ccccc2)C(=O)[C@H](CC(C)C)NC(=O)[C@H](CC(C)C)N(C)C(=O)[C@H](CC(C)C)NC(=O)[C@H](CC(C)C)NC1=O` [Compound 8, 3-Hydroxy-isoindolinone-cyclo-Gly-Leu-N-Me-Leu-Leu-Leu-Leu] (cyclo(LL[NMeL]L[X1]L)), the “effect on lactate dehydrogenase activity” value was “significant decrease”.
